# From patent US10154974B1, “Use of abscisic acid for the prevention and treatment of malaria” (The Regents of the University of California, priority 2015, dated 2018)
# Assays:
# [1] = test system: liver; experiment: Liver histology scoring; assay type: in vivo, mice
# Method: Mice were euthanized on day 7 post-infection. Blood was collected by heart puncture, spun at 8,000 rpm for 8 minutes and the plasma collected for ABA quantification. Livers and spleens were collected, retained in 10% formalin for 24 hours and then stored in 70% ethanol before sectioning and staining with hematoxylin and eosin. Liver sections were blindly scored on a scale from 0 to 3 for pigment levels, Kupffer cell density, portal tract inflammation, hemozoin deposition, extramedullary hematopoiesis, sinusoidal leukocyte density, sinusoidal adherence of leukocytes, and presence of microabscesses. Spleen sections were blindly scored on a scale from 0 to 3 for hyperplasia, extramedullary hematopoiesis, pigment, and levels of histiocytes and neutrophils. Pathology scores of control and treated mice were analyzed by unpaired t-test.
# [2] = test system: P. yoelii 17XNL; experiment: P. yoelii transmission from ABA-supplemented mice to A. stephensi (oocyst counts); assay type: in vivo
# Method: Anopheles stephensi Liston (Indian wild-type strain) were reared and maintained at 27° C. and 75% humidity. For all feeding experiments, 3-5-day-old female mosquitoes were maintained on water pads for 24 hours and then allowed to bloodfeed for 30 minutes on control or ABA-supplemented P. yoelii 17XNL-infected mice. Cohorts of 50 mosquitoes were allowed to feed on each mouse at 5 days post-infection. Immediately after feeding non-engorged mosquitoes were removed. Ten days post-feeding, midguts were dissected, stained with 0.5% mercurochrome, and oocysts counted by microscopy.
# [3] = test system: P. falciparum NF54; experiment: P. falciparum asexual growth assay; assay type: cell-based; details: 10 nM or 100 nM ABA, 48 and 96 hours, relative to untreated control
# Method: P. falciparum NF54 cultures were synchronized and aliquots plated in complete RPMI 1640 with HEPES, hypoxanthine, and 10% heat inactivated human serum. Parasites were treated with 10 nM ABA, 100 nM ABA, or a diluent control and incubated at 37° C. for 48 or 96 hours before culture media was replaced with 10% formalin in RPMI 1640. Red blood cells were stained with 10 ug/mL propidium iodide (Sigma-Aldrich) in PBS at room temperature for 1 hour and infected cells counted with FACS Calibur flow cytometer (BD Biosciences). Four replicates were carried out, each using a separate parasite culture passage. Relative changes in growth were normalized to controls set at 1 and analyzed by one-sample t-test.
# [4] = test system: APL1; experiment: APL1 expression in mosquito midgut; assay type: in vivo, Anopheles stephensi; details: 100 nM ABA, 4 and 8 hours post-feeding
# Method: For mosquito immune gene expression, 20 midguts were dissected from mosquitoes in each treatment group at 1, 2, 4, 6, 8 and 24 hours post-feeding. Midguts were sonicated and stored in Trizol at −20° C. for up to a week before RNA was extracted according to manufacturer's instructions. cDNA synthesis was carried out using QantiTect Reverse Transcription Kit (Qiagen) and 200 ng of cDNA used per reaction for qRT-PCR with Sybr Green (Applied Biosystems). Fold changes in expression levels were calculated using the comparative threshold cycle method. Data were normalized to the housekeeping gene ribosomal protein S7 and to the control treatment. Primers and cycling conditions for AsNOS, defensin, LRIM, TEP1, and APL1 were as previously described (Hauck E S, et al. Microbes Infect. 2013; 15:775-87). […] Samples were analyzed in triplicate with 250 ng of cDNA per reaction to confirm uniformity of amplification. […] All expression data were analyzed by one sample t-test.
# Transcript levels of a panel of immune genes previously described to play a role in the mosquito immune response to malaria parasites were examined. […] Mosquitoes were provided with a P. falciparum-infected bloodmeal supplemented with 100 nM ABA or with an equivalent volume of diluent as control, then analyzed at 1-24 hours post feeding.
# [5] = test system: gsk3; experiment: gsk3 phosphorylation in mosquito midgut; assay type: in vivo, Anopheles stephensi; details: midguts of ABA-treated, P. falciparum-fed mosquitoes
# Method: Fold change is shown in levels of phosphorylated AMPK (FIG. 13A), and gsk3 (FIG. 13B) in the midguts of ABA-treated, P. falciparum-fed mosquitoes compared to controls. Each dot represents one replicate of 15 pooled midguts. Data were analyzed by one sample t-test. * p<0.05.
# [6] = test system: IgG1 and IgG2a; experiment: IgM and IgG antibody isotype concentrations in mouse plasma; assay type: in vivo, mice; details: days 9, 11 and 13 post-infection
# Method: FIG. 24 illustrates that ABA supplementation increases levels of IgG1 and IgG2a in plasma. Concentrations are shown of IgM and IgG antibody isotypes in mouse plasma with and without ABA supplementation on days 9, 11 and 13 post-infection with P. yoelii 17XNL. Data were analyzed by unpaired t-test.
# [7] = test system: inflammatory bowel disease (IBD); details: ABA supplementation; cited from earlier work
# [8] = infected mice, day 7 post-infection
structure (smiles),measurement,setting,value
"CC1=CC(=O)CC(C)(C)[C@@]1(O)/C=C/C(C)=C\C(=O)O (racemic) [ABA, (2Z,4E)-5-[(1S)-1-hydroxy-2,6,6-trimethyl-4-oxocyclohex-2-en-1-yl]-3-methylpenta-2,4-dienoic acid]",number of sinusoidal leukocytes in the liver,[1]; absence of infection,decreased
same,adhered leukocytes in the liver,[1]; [8],fewer
same,microabscesses in the liver,[1]; [8],fewer
same,"hemozoin deposition, pigment, portal tract inflammation, extramedullary hematopoeisis, Kupffer cell density","[1]; liver, P. yoelii-infected mice",not altered
same,mean oocysts per midgut,[2]; A. stephensi fed on ABA-supplemented mice on day 5,12
same,infection prevalence of mosquitoes,"[2]; A. stephensi fed on ABA-supplemented mice on day 5, dissected ten days later",60.9%
same,reduction in prevalence,[2]; vs mosquitoes fed on control mice,31.4%
same,asexual growth,[3],no effect
same,APL1 expression,[4],increased
same,phosphorylation of gsk3,[5],alters phosphorylation
same,levels of IgG1 in plasma,[6],increases
same,levels of IgG2a in plasma,[6],increases
same,epithelial erosion and leukocyte infiltration,[7],reduced
